Our source for the EC50 values is patent US20240076285A1, “COMPOUNDS AND COMPOSITIONS FOR TREATING CONDITIONS ASSOCIATED WITH STING ACTIVITY” (IFM Due, Inc., priority 2020, published 2024).

This assay addresses T1, hSTING (Homo sapiens, UniProt Q86WV6, G230A/H232R/R293Q/R71H).
T1 construct: host or cells: THP1-Dual KO-IFNAR2 cells
Nature of the assay: STING reporter assay in THP1-Dual KO-IFNAR2 cells (2'3'cGAMP stimulation, luciferase reporter). Particulars: 15 μM 2'3'cGAMP, 24 h, class symbols. Format: cell-based. On the procedure: STING pathway activation by the compounds described herein was measured using THP1-Dual™ cells (KO-IFNAR2).
THP1-Dual™ KO-IFNAR2 Cells (obtained from invivogen) were maintained in RPMI, 10% FCS, 5 ml P/S, 2 mM L-glut, 10 mM Hepes, and 1 mM sodium pyruvate. Compounds were spotted in empty 384 well tissue culture plates (Greiner 781182) by Echo for a final concentration of 0.0017-100 μM. Cells were plated into the TC plates at 40 μL per well, 2×10E6 cells/mL. For activation with STING ligand, 2′3′cGAMP (MW 718.38, obtained from Invivogen), was prepared in Optimem media.
The following solutions were prepared for each 1×384 plate: • Solution A: 2 mL Optimem with one of the following stimuli: • 60 μL of 10 mM 2′3′cGAMP→150 μM stock • Solution B: 2 mL Optimem with 60 μL Lipofectamine 2000→Incubate 5 min at RT
2 mL of solution A and 2 ml Solution B was mixed and incubated for 20 min at room temperature (RT). 20 μL of transfection solution (A+B) was added on top of the plated cells, with a final 2′3′cGAMP concentration of 15 μM. The plates were then centrifuged immediately at 340 g for 1 minute, after which they were incubated at 37° C., 5% CO2, >98% humidity for 24 h. Luciferase reporter activity was then measured. EC50 values were calculated by using standard methods known in the art.
Luciferase reporter assay: 10 μL of supernatant from the assay was transferred to white 384-plate with flat bottom and squared wells. One pouch of QUANTI-Luc™ Plus was dissolved in 25 mL of water. 100 μL of QLC Stabilizer per 25 mL of QUANTI-Luc™ Plus solution was added. 50 μL of QUANTI-Luc™ Plus/QLC solution per well was then added. Luminescence was measured on a Platereader (e.g., Spectramax I3X (Molecular Devices GF3637001)).
Luciferase reporter activity was then measured. EC50 values were calculated by using standard methods known in the art.
(A reporter such as luciferase makes a cellular process visible.)

In general, EC50 refers to the concentration needed to bring the measured effect to its halfway point. Low readings indicate higher potency in that assay, high ones lower potency in that assay.

T1 sequence (Q86WV6 whole entry R71H/G230A/H232R/R293Q): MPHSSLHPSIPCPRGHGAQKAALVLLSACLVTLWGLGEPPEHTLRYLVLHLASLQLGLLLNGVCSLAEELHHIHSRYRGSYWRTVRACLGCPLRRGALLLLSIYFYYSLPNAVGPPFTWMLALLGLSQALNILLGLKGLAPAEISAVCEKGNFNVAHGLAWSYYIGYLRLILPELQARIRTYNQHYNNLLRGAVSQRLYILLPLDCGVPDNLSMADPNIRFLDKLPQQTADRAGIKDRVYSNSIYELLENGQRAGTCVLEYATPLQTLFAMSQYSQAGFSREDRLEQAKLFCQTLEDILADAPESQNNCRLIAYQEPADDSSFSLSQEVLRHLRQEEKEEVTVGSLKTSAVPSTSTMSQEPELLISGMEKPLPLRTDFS

As to `N#Cc1cc(Nc2cc(Cl)cc(OC(F)(F)F)c2)cc(Nc2cc(Cl)c3cc[nH]c3c2)n1` [Compound 167, 6-[(4-chloro-1H-indol-6-yl)amino]-4-{[3-chloro-5-(trifluoromethoxy)phenyl]amino}pyridine-2-carbonitrile], the EC50 lay within 200 to 1000 nM. The compound `N#Cc1cc(Nc2ccc(F)c(F)c2)cc(Nc2cc(Cl)c3cc[nH]c3c2)n1` [Compound 168, 6-[(4-chloro-1H-indol-6-yl)amino]-4-[(3,4-difluorophenyl)amino]pyridine-2-carbonitrile] came in with an EC50 of 40 to 200 nM. The compound `N#Cc1cc(Nc2ccc(F)c(Cl)c2)cc(Nc2cc(Cl)c3cc[nH]c3c2)n1` [Compound 169, 6-[(4-chloro-1H-indol-6-yl)amino]-4-[(3-chloro-4-fluorophenyl)amino]pyridine-2-carbonitrile] registered an EC50 of 40 to 200 nM. For the compound `N#Cc1cc(Nc2cc(F)cc(F)c2)cc(Nc2cc(Cl)c3cc[nH]c3c2)n1` [Compound 170, 6-[(4-chloro-1H-indol-6-yl)amino]-4-[(3,5-difluorophenyl)amino]pyridine-2-carbonitrile], the 50% effective concentration (EC50) was in the range of 40 to 200 nM.

`N#Cc1cc(Nc2cc(F)cc(Cl)c2)cc(Nc2cc(Cl)c3cc[nH]c3c2)n1` [Compound 171, 6-[(4-chloro-1H-indol-6-yl)amino]-4-[(3-chloro-5-fluorophenyl)amino]pyridine-2-carbonitrile] came in with an EC50 of 200 to 1000 nM. Under `Cc1nc2cc(Nc3cc(C#N)nc(Nc4cc(Cl)c5cc[nH]c5c4)c3)ccc2s1` [Compound 172, 6-[(4-chloro-1H-indol-6-yl)amino]-4-[(2-methyl-1,3-benzothiazol-5-yl)amino]pyridine-2-carbonitrile] stands 200 to 1000 nM; under `N#Cc1cc(Nc2ccc(C(F)(F)F)c(Cl)c2)cc(Nc2cc(Cl)c3cc[nH]c3c2)n1` [Compound 173, 6-[(4-chloro-1H-indol-6-yl)amino]-4-{[3-chloro-4-(trifluoromethyl)phenyl]amino}pyridine-2-carbonitrile], 200 to 1000 nM.

Regarding `CCc1ccc(Nc2cc(C#N)nc(Nc3cc(Cl)c4cc[nH]c4c3)c2)cn1` [Compound 174, 6-[(4-chloro-1H-indol-6-yl)amino]-4-[(6-ethylpyridin-3-yl)amino]pyridine-2-carbonitrile], the EC50 was in the range of 200 to 1000 nM. The compound `N#Cc1cc(Nc2cncc(Cl)c2)cc(Nc2cc(Cl)c3cc[nH]c3c2)n1` [Compound 175, 6-[(4-chloro-1H-indol-6-yl)amino]-4-[(5-chloropyridin-3-yl)amino]pyridine-2-carbonitrile] came in with an EC50 of 200 to 1000 nM. Consider `Cc1nn(C)c2ccc(Nc3cc(C#N)nc(Nc4cc(Cl)c5cc[nH]c5c4)c3)cc12` [Compound 176, 6-[(4-chloro-1H-indol-6-yl)amino]-4-[(1,3-dimethyl-1H-indazol-5-yl)amino]pyridine-2-carbonitrile], for which the EC50 lay within 200 to 1000 nM. Then `N#Cc1cc(Nc2ccc3c(c2)OC(F)(F)O3)cc(Nc2cc(Cl)c3cc[nH]c3c2)n1` [Compound 177, 6-[(4-chloro-1H-indol-6-yl)amino]-4-[(2,2-difluoro-2H-1,3-benzodioxol-5-yl)amino]pyridine-2-carbonitrile], with 40 to 200 nM.

`CC1(C)C(=O)Nc2cc(Nc3cc(C#N)nc(Nc4cc(Cl)c5cc[nH]c5c4)c3)ccc21` [Compound 178, 6-[(4-chloro-1H-indol-6-yl)amino]-4-[(3,3-dimethyl-2-oxo-2,3-dihydro-1H-indol-6-yl)amino]pyridine-2-carbonitrile] displayed an EC50 of 200 to 1000 nM.

Compound `Cc1nc2ccc(Nc3cc(C#N)nc(Nc4cc(Cl)c5cc[nH]c5c4)c3)cc2s1` [Compound 179, 6-[(4-chloro-1H-indol-6-yl)amino]-4-[(2-methyl-1,3-benzothiazol-6-yl)amino]pyridine-2-carbonitrile] registered an EC50 of 200 to 1000 nM. In turn, `N#Cc1cc(Nc2ccc3c(c2)C(=O)NC3)cc(Nc2cc(Cl)c3cc[nH]c3c2)n1` [Compound 180, 6-[(4-chloro-1H-indol-6-yl)amino]-4-[(3-oxo-2,3-dihydro-1H-isoindol-5-yl)amino]pyridine-2-carbonitrile] gave an EC50 of 1000 to 5000 nM. Then `N#Cc1cc(Nc2ccc3c(c2)CC(=O)N3)cc(Nc2cc(Cl)c3cc[nH]c3c2)n1` [Compound 181, 6-[(4-chloro-1H-indol-6-yl)amino]-4-[(2-oxo-2,3-dihydro-1H-indol-5-yl)amino]pyridine-2-carbonitrile], with 1000 to 5000 nM; and `N#Cc1cc(Nc2ccc(OC(F)F)nc2)cc(Nc2cc(Cl)c3cc[nH]c3c2)n1` [Compound 182, 6-[(4-chloro-1H-indol-6-yl)amino]-4-{[6-(difluoromethoxy)pyridin-3-yl]amino}pyridine-2-carbonitrile], with 40 to 200 nM; and `N#Cc1cc(Nc2ccc(C(F)(F)F)nc2)cc(Nc2cc(Cl)c3cc[nH]c3c2)n1` [Compound 183, 6-[(4-chloro-1H-indol-6-yl)amino]-4-{[6-(trifluoromethyl)pyridin-3-yl]amino}pyridine-2-carbonitrile], with 200 to 1000 nM. Turning to `Cc1ccc(Nc2cc(C#N)nc(Nc3cc(Cl)c4cc[nH]c4c3)c2)cn1` [Compound 184, 6-[(4-chloro-1H-indol-6-yl)amino]-4-[(6-methylpyridin-3-yl)amino]pyridine-2-carbonitrile], the EC50 lay in the range of 200 to 1000 nM. Then `COc1cc(Cl)cc(Nc2cc(C#N)nc(Nc3cc(Cl)c4cc[nH]c4c3)c2)c1` [Compound 185, 6-[(4-chloro-1H-indol-6-yl)amino]-4-[(3-chloro-5-methoxyphenyl)amino]pyridine-2-carbonitrile], with 40 to 200 nM; and `N#Cc1cc(Nc2cc(F)cc(C(F)(F)F)c2)cc(Nc2cc(Cl)c3cc[nH]c3c2)n1` [Compound 186, 6-[(4-chloro-1H-indol-6-yl)amino]-4-{[3-fluoro-5-(trifluoromethyl)phenyl]amino}pyridine-2-carbonitrile], with 200 to 1000 nM; and `N#Cc1cc(Nc2cncc(C(F)(F)F)c2)cc(Nc2cc(Cl)c3cc[nH]c3c2)n1` [Compound 187, 6-[(4-chloro-1H-indol-6-yl)amino]-4-{[5-(trifluoromethyl)pyridin-3-yl]amino}pyridine-2-carbonitrile], with 200 to 1000 nM. On to `N#Cc1cc(Nc2ccc3c(c2)CCC3)cc(Nc2cc(Cl)c3cc[nH]c3c2)n1` [Compound 188, 6-[(4-chloro-1H-indol-6-yl)amino]-4-[(2,3-dihydro-1H-inden-5-yl)amino]pyridine-2-carbonitrile], for which the EC50 lay within 40 to 200 nM. Then `N#Cc1cc(Nc2ccc3c(c2)OC(F)(F)C(F)(F)O3)cc(Nc2cc(Cl)c3cc[nH]c3c2)n1` [Compound 189, 6-[(4-chloro-1H-indol-6-yl)amino]-4-[(2,2,3,3-tetrafluoro-2,3-dihydro-1,4-benzodioxin-6-yl)amino]pyridine-2-carbonitrile], with 40 to 200 nM; and `CNC(=O)c1ccc(Nc2cc(C#N)nc(Nc3cc(Cl)c4cc[nH]c4c3)c2)cc1F` [Compound 190, 4-({2-[(4-chloro-1H-indol-6-yl)amino]-6-cyanopyridin-4-yl}amino)-2-fluoro-N-methylbenzamide], with 1000 to 5000 nM.

`N#Cc1cc(Nc2ccc3c(c2)OCCO3)cc(Nc2cc(Cl)c3cc[nH]c3c2)n1` [Compound 191, 6-[(4-chloro-1H-indol-6-yl)amino]-4-[(2,3-dihydro-1,4-benzodioxin-6-yl)amino]pyridine-2-carbonitrile] yielded an EC50 of 1000 to 5000 nM.
